Results taken from PubChem BioAssay AID280 (DTP/NCI, 2004).
Several values for one entry are separate records, joined by “and”; a condition that tells them apart may be missing. Equal values may be shown once. Inconclusive results and toxic doses are left out.

System: nude mice, LOX melanoma ip, survival T/C
Test: NCI In Vivo Anticancer Drug Screen. Data for tumor model Human Amelanotic Melanoma (LOX) (intraperitoneal) in NU/NU BALB/C (nude) mice
Conditions: endpoint: median survival time, schedule: Q04DX003 (ip), higher = longer survival
Protocol: The antitumor activity of compounds was measured in mice bearing transplantable tumors. Survival or tumor size were measured and the results are expressed as the measurement made in the treated group (T) divided by the measurement made in the vehicle treated control group (C). The tumor model used in this assay is Human Amelanotic Melanoma (LOX) (intraperitoneal) in NU/NU BALB/C (nude) mice

[1] = dose: 37.5 mg/kg/injection, vehicle: saline with Tween-80
[2] = dose: 75.0 mg/kg/injection, vehicle: saline with Tween-80
[3] = dose: 300.0 mg/kg/injection, vehicle: saline with Tween-80
[4] = dose: 37.5 mg/kg/injection, vehicle: Klucel (hydroxypropylcellulose) (HPC)
[5] = dose: 75.0 mg/kg/injection, vehicle: Klucel (hydroxypropylcellulose) (HPC)
[6] = dose: 50.0 mg/kg/injection, vehicle: saline
[7] = dose: 100.0 mg/kg/injection, vehicle: saline

With CS(=O)(=O)Nc1ccc(C(=O)CCN2CCCCCC2)cc1 the T/C [1] was 98 % of control, the T/C [2] was 123 % of control and the T/C (dose: 150.0 mg/kg/injection, vehicle: saline with Tween-80) was 93 % of control. The T/C [3] was 110 % of control.
For O=C1c2ccccc2C(=O)c2c1cn1c2Cc2ccccc2C1, the T/C (dose: 6.25 mg/kg/injection, vehicle: Klucel (hydroxypropylcellulose) (HPC)) was 91 % of control, the T/C (dose: 25.0 mg/kg/injection, vehicle: Klucel (hydroxypropylcellulose) (HPC)) was 93 % of control and the T/C (dose: 50.0 mg/kg/injection, vehicle: Klucel (hydroxypropylcellulose) (HPC)) was 109 % of control and 95 % of control. The T/C (dose: 100.0 mg/kg/injection, vehicle: Klucel (hydroxypropylcellulose) (HPC)) was 90 % of control, the T/C (dose: 200.0 mg/kg/injection, vehicle: Klucel (hydroxypropylcellulose) (HPC)) was 91 % of control and the T/C (dose: 400.0 mg/kg/injection, vehicle: Klucel (hydroxypropylcellulose) (HPC)) was 95 % of control.
In the case of CN(C)CCC(=O)C(=Cc1ccc(O)cc1)C(=O)CCN(C)C, the T/C (dose: 18.75 mg/kg/injection, vehicle: saline) is reported as 100 % of control, the T/C (dose: 37.5 mg/kg/injection, vehicle: saline) is reported as 101 % of control and the T/C (dose: 75.0 mg/kg/injection, vehicle: saline) is reported as 112 % of control. For the same compound, the T/C (dose: 150.0 mg/kg/injection, vehicle: saline) was 107 % of control and the T/C (dose: 300.0 mg/kg/injection, vehicle: saline) was 103 % of control.
With COc1cc(NS(C)(=O)=O)ccc1Nc1c2ccccc2nc2ccccc12 the T/C (dose: 2.5 mg/kg/injection, vehicle: other) was 117 % of control and the T/C (dose: 5.0 mg/kg/injection, vehicle: other) was 122 % of control.
In the case of COc1cc2c(cc1OC)[C@@H]1C(=O)c3ccc4c(c3O[C@@H]1CO2)C[C@H](C(C)C)O4, the T/C (dose: 18.75 mg/kg/injection, vehicle: Klucel (hydroxypropylcellulose) (HPC)) is reported as 113 % of control and the T/C [4] is reported as 110 % of control.
O=C1c2c(O)ccc(O)c2C(=O)c2c(NCCNCCO)ccc(NCCNCCO)c21 was tested, and the T/C (dose: 0.45 mg/kg/injection, vehicle: other) was 168 % of control and 167 % of control, the T/C (dose: 0.75 mg/kg/injection, vehicle: other) was 375 % of control and 187 % of control and the T/C (dose: 1.25 mg/kg/injection, vehicle: other) was 256 % of control and 265 % of control. For the same compound, the T/C (dose: 1.25 mg/kg/injection, vehicle: water) was 218 % of control, the T/C (dose: 2.0 mg/kg/injection, vehicle: other) was 187 % of control and the T/C (dose: 2.08 mg/kg/injection, vehicle: other) was 88 % of control. For the same compound, the T/C (dose: 2.5 mg/kg/injection, vehicle: water) was 120 % of control.
For O=C1C2=C(C(=O)c3cnccc31)C1C=CC2CC1 (centres undefined), the T/C (dose: 25.0 mg/kg/injection, vehicle: DMSO) was 93 % of control.
In the case of c1ccc(OCC2CO2)c(OCC2CO2)c1 (centres undefined), the T/C [1] is reported as 118 % of control, the T/C [2] is reported as 109 % of control and the T/C [3] is reported as 265 % of control.
With Cn1c(=S)sc2nc3ccccc3n2c1=S the T/C (dose: 30.0 mg/kg/injection, vehicle: saline with Tween-80) was 122 % of control, the T/C (dose: 60.0 mg/kg/injection, vehicle: saline with Tween-80) was 100 % of control and the T/C (dose: 120.0 mg/kg/injection, vehicle: saline with Tween-80) was 104 % of control. For the same compound, the T/C (dose: 240.0 mg/kg/injection, vehicle: saline with Tween-80) was 108 % of control and the T/C (dose: 480.0 mg/kg/injection, vehicle: saline with Tween-80) was 94 % of control.
For Cn1cc(C2NC(=O)c3ccccc3N2)c2ccccc21 (centres undefined), the T/C [5] was 110 % of control and 100 % of control, the T/C (dose: 150.0 mg/kg/injection, vehicle: Klucel (hydroxypropylcellulose) (HPC)) was 106 % of control and 122 % of control and the T/C (dose: 300.0 mg/kg/injection, vehicle: Klucel (hydroxypropylcellulose) (HPC)) was 110 % of control and 94 % of control.
In the case of CC1/C=C/C=C/CC/C=C/C=C/C=C/C=C/C(OC2OC(C)C(O)C(N)C2O)CC2OC(CC(O)C(O)CCC(O)CC(O)CC(O)CC(=O)OC(C)C(C)C1O)CC(O)C2C(=O)O (centres undefined), the T/C (dose: 25.0 mg/kg/injection, vehicle: saline with Tween-80) is reported as 101 % of control, the T/C (dose: 50.0 mg/kg/injection, vehicle: saline with Tween-80) is reported as 101 % of control and the T/C (dose: 100.0 mg/kg/injection, vehicle: saline with Tween-80) is reported as 111 % of control.
CN=NN(C)C(=O)NC was tested, and the T/C (dose: 25.0 mg/kg/injection, vehicle: saline) was 154 % of control, the T/C [6] was 188 % of control and the T/C [7] was 230 % of control.
In the case of COc1cc2c(cc1OC)-c1c3c(cc4c1[C@@H](C2)N(C)CC4)OCO3, the T/C (dose: 32.0 mg/kg/injection, vehicle: distilled water + Tween-80 + alcohol) is reported as 115 % of control, the T/C (dose: 90.0 mg/kg/injection, vehicle: distilled water + Tween-80 + alcohol) is reported as 109 % of control and the T/C (dose: 150.0 mg/kg/injection, vehicle: distilled water + Tween-80 + alcohol) is reported as 123 % of control.
With [CH3][Sn]([CH3])([Cl])[c]1cc[c]([Sn]([CH3])([CH3])[Cl])cc1 the T/C (dose: 0.63 mg/kg/injection, vehicle: saline) was 91 % of control, the T/C (dose: 1.25 mg/kg/injection, vehicle: saline) was 103 % of control and the T/C (dose: 2.5 mg/kg/injection, vehicle: saline) was 98 % of control. The T/C (dose: 5.0 mg/kg/injection, vehicle: saline) was 107 % of control.
For O=C1C(=O)c2cccnc2-c2ncccc21, the T/C (dose: 2.5 mg/kg/injection, vehicle: Klucel (hydroxypropylcellulose) (HPC)) was 94 % of control and the T/C (dose: 5.0 mg/kg/injection, vehicle: Klucel (hydroxypropylcellulose) (HPC)) was 101 % of control.
In the case of C/C(=N\NC(=O)c1ccccc1O)c1cccc(/C(C)=N/NC(=O)c2ccccc2O)n1, the T/C [6] is reported as 116 % of control and the T/C [7] is reported as 154 % of control.
In the case of O=[N+]([O-])c1ccc([I+]c2ccccc2)cc1, the T/C (dose: 9.38 mg/kg/injection, vehicle: Klucel (hydroxypropylcellulose) (HPC)) is reported as 121 % of control, the T/C (dose: 16.2 mg/kg/injection, vehicle: Klucel (hydroxypropylcellulose) (HPC)) is reported as 115 % of control and the T/C (dose: 27.0 mg/kg/injection, vehicle: Klucel (hydroxypropylcellulose) (HPC)) is reported as 114 % of control and 101 % of control. For the same compound, the T/C [4] was 108 % of control, the T/C (dose: 45.0 mg/kg/injection, vehicle: Klucel (hydroxypropylcellulose) (HPC)) was 105 % of control and 120 % of control and the T/C [5] was 93 % of control.
For CCC1(O)C(=O)OCc2c1cc1n(c2=O)Cc2cc3cc(N)ccc3nc2-1 (centres undefined), the T/C (dose: 3.75 mg/kg/injection, vehicle: suspension in saline) was 324 % of control, the T/C (dose: 4.0 mg/kg/injection, vehicle: saline) was 189 % of control and the T/C (dose: 7.0 mg/kg/injection, vehicle: saline) was 355 % of control. For the same compound, the T/C (dose: 7.5 mg/kg/injection, vehicle: suspension in saline) was 324 % of control, the T/C (dose: 12.0 mg/kg/injection, vehicle: saline) was 355 % of control and the T/C (dose: 15.0 mg/kg/injection, vehicle: suspension in saline) was 324 % of control. The T/C (dose: 20.0 mg/kg/injection, vehicle: saline) was 355 % of control and the T/C (dose: 33.0 mg/kg/injection, vehicle: saline) was 355 % of control.
